Results on 3 compounds are retold here after paper PMC3914206.

Holding throughout (assay type): binding
Holding throughout (conditions): Compound Concentration 10 µM

Assay [1] addresses T1, panel of 442 kinases (Homo sapiens, UniProt P36888, D835H).
T1 construct: purchased KINOMEscan
T1 sequence (P36888 27-993 D835H): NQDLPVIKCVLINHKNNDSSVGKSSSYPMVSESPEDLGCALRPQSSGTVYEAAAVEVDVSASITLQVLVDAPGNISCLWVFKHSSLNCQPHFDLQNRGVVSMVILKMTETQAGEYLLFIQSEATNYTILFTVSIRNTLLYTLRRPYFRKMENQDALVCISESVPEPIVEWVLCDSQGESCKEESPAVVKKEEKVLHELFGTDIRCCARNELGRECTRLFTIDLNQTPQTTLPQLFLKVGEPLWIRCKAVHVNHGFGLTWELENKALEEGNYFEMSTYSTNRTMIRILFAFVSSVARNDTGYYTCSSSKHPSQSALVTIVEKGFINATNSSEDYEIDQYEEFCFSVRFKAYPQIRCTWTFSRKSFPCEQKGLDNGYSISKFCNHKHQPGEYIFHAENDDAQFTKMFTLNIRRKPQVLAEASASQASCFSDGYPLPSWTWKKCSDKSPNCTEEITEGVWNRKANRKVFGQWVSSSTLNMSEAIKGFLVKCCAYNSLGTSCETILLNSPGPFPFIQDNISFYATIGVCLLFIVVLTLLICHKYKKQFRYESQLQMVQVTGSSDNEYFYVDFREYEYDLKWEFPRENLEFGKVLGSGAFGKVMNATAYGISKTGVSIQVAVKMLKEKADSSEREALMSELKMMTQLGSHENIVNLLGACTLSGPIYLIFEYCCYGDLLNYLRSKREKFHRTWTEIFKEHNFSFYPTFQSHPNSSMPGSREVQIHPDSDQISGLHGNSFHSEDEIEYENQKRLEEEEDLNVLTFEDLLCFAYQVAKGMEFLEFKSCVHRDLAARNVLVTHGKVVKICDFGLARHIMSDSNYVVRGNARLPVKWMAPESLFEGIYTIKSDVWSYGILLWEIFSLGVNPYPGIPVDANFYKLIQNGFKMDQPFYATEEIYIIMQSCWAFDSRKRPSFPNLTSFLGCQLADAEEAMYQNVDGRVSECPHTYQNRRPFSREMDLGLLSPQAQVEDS
The source says:
(§1) We assessed the selectivity of members of this scaffold using the KINOMEscan methodology across a near comprehensive panel of 442 kinases [[18,27]].

In assay [2] the target is T2, panel of 442 kinases (Homo sapiens, UniProt Q13177).
T2 construct: purchased KINOMEscan
Description: as §1

The target of assay [3] is T3, panel of 442 kinases (Homo sapiens, UniProt O94921).
T3 construct: purchased KINOMEscan
Description: as §1

Molecules are shown by their SMILES.

T3 sequence (O94921 whole entry): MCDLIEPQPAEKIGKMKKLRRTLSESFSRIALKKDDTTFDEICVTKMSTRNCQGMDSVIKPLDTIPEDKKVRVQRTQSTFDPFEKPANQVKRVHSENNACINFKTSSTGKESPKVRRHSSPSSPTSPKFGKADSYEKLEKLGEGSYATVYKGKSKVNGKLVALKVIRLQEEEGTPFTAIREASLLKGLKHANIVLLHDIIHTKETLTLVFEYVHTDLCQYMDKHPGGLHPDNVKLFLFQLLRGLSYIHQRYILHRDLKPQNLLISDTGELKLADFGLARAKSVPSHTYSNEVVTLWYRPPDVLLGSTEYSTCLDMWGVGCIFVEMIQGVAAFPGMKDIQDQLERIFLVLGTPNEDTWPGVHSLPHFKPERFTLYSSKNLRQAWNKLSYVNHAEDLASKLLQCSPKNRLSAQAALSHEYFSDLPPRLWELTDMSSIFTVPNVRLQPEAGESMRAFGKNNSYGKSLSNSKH
T2 sequence (Q13177 whole entry): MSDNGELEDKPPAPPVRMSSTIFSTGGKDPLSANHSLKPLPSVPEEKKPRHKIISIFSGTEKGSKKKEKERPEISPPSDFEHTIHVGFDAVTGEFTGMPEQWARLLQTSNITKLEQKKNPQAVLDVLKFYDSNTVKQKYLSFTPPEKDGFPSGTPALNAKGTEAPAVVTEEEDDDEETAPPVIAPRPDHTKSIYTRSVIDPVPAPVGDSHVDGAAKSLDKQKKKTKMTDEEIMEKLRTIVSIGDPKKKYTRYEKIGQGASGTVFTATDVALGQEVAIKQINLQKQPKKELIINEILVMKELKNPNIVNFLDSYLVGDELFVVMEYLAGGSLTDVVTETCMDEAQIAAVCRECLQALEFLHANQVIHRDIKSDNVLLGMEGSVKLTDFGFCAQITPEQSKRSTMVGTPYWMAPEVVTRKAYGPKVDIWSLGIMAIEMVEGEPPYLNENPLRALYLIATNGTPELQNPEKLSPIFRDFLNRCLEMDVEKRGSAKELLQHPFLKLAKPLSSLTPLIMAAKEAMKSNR

As for `COc1cc(C(=O)N2CCC(N3CCN(C)CC3)CC2)ccc1Nc1ncc2c(n1)N(C)c1ccccc1C(=O)N2C` [15 (LRRK2-IN-1)], at panel of 442 kinases [1], the “KINOMEscan: FLT3(D835H)” value is recorded as 100. Also, the “KINOMEscan: PAK2” value at panel of 442 kinases [2] is recorded as 65. Also, the “KINOMEscan: PFTK1” value on panel of 442 kinases [3] is 81.
As to `COc1cc(C(=O)N2CCC(N3CCN(C)CC3)CC2)ccc1Nc1ncc2c(n1)N(C1CCCC1)c1ccccc1C(=O)N2C` [Compound 25, 11-cyclopentyl-2-((2-methoxy-4-(4-(4-methylpiperazin-1-yl)piperidine-1-carbonyl)phenyl)amino)-5-methyl-5H-benzo[e]pyrimido[5,4-b][1,4]diazepin-6(11H)-one], the “KINOMEscan: FLT3(D835H)” value at panel of 442 kinases [1] worked out at 100. Besides, the “KINOMEscan: PAK2” value on panel of 442 kinases [2] is 90. Besides, at panel of 442 kinases [3], the “KINOMEscan: PFTK1” value is given as 100.
`CCOc1cc(C(=O)N2CCC(N3CCN(C)CC3)CC2)ccc1Nc1ncc2c(n1)N(C1CCCC1)c1ccccc1C(=O)N2C` [Compound 26]: the “KINOMEscan: FLT3(D835H)” value on panel of 442 kinases [1] is on record as 100. The “KINOMEscan: PAK2” value at panel of 442 kinases [2] is 92. On panel of 442 kinases [3], the “KINOMEscan: PFTK1” value amounted to 100.
